Assays:
[1] = tested on: souris consanguines DBA₂ saines; assay: Acute toxicity, single intraperitoneal injection in healthy mice, mortality at day 7; type: in vivo; settings: single i.p. injection, 50 mg/kg
[2] = tested on: lignée tumorale leucémie L 1210; assay: In vitro cytotoxic activity on L 1210 leukemia cell culture (inhibition of cell proliferation); type: cell-based; settings: Mus musculus, L1210; L 1210 culture in exponential growth, 37°C, after 48 hours of contact; read-out: ID 50 (the source's name)
Protocol: 1) In vitro : (PAOLETTI et al., Chem. Biol. Interaction, 1979, 25, 45-58).
L'activité cytotoxique des composés de l'invention a été évaluée par des essais in vitro. Ces essais consistent à ajouter des concentrations croissantes du composé à tester à une culture cellulaire de la lignée tumorale leucémie L 1210 en phase exponentielle de croissance. Les cellules sont incubées à 37°C dans une étuve à CO₂ et comptées toutes les 24 heures. Le calcul de l'ID₅₀ (concentration du produit exprimée en micromole 1⁻¹ qui inhibe la prolifération cellulaire à 50 p. 100) est effectuée après 48 heures de contact. Ainsi déterminées les ID₅₀ des composés de l'invention sont rassemblées dans le tableau ci-après.

leucémie P 388 = assay: animal or person; type: in vivo, souris hybrides CDF 1
From the text: (§1) L'activité antitumorale a été testée in vivo sur différentes tumeurs selon le protocole général suivant:
(§2) Toutes les souris mâles ou femelles sont inoculées par voie intrapéritonéale au jour Jo avec une quantité déterminée de cellules tumorales viables, variable selon la tumeur.
(§3) Elles sont ensuite réparties en différents lots. Chaque lot correspondant aux animaux traités par le produit à tester à une dose déterminée est composé de 10 souris. Dans ce cas, le produit à tester est dissous dans l'eau distillée et il est administré, pendant n jours (J₁-Jn) variables selon le protocole choisi, par voie intrapéritonéale à raison de 0,1 ml par 10 g de poids des souris traitées, les doses du produit administré étant précisées dans les tableaux ci-dessous.
(§4) Le lot "contrôle négatif", correspondant aux animaux qui ne sont pas traités par un produit, comprend 2 √N animaux, N étant égal au nombre total de souris traitées par un produit.
(§5) Enfin, tous les essais sont conduits parallèlement à l'étude d'un lot appelé "contrôle positif" de 10 animaux qui est traité par une molécule active, variable selon le protocole choisi, dans les mêmes conditions que les lots traités par le produit à tester, afin de valider l'essai.
(§6) L'activité antitumorale est évaluée en considé-rant l'augmentation du temps de survie des animaux traités par rapport à celui des animaux du lot "contrôle négatif" selon la formule : [formula]
(§7) Un composé est considéré comme étant actif lorsque la valeur du rapport T/C est égale ou supérieure à 125 % selon le protocole retenu. Il est toxique lorsque cette valeur est égale ou inférieure à 85 %. Le produit est également considéré comme toxique lorsque la variation pondérale, exprimée en grammes et calculée par la formule : Poids moyen du lot mesuré au jour 5 -poids moyen du même lot au jour 1 est égale ou inférieure à - 4 g.
a) Test de la leucémie P 388 (GERAN et al., Cancer Chemother, 1972, 2, 07-57).
Les essais sont effectués avec des souris hybrides CDF 1 inoculées par voie intrapéritonéale avec 10⁶ cellules leucémiques de la lignée P 388. Le composé à tester est administré pendant 5 jours (J1-J5). Le contrôle positif du test est le 5-fluorouracile qui est administré dans les mêmes conditions. Le nombre d'animaux survivants est évalué au jour J 40. Un composé est considéré comme étant actif lorsque le rapport T/C est supérieur à 127 %.

leucémie L 1210 = assay: In vivo antitumour activity, L 1210 leukemia test; design: species or system souris hybrides CDF₁; settings: for Nombre de survivants: survivors at J 30
From the text: as §1, §2, §3, §4, §5, §6, §7
b) Test de la leucémie L 1210 (GERAN et al., Cancer Chemother, 1972, 2, 07-57).
Les essais sont effectués avec des souris hybrides CDF₁ inoculées avec 10⁵ cellules leucémiques de la lignée L 1210. Le composé à tester est administré pendant 5 jours (J₁-J₅).Le contrôle positif du test est le 5-fluorouracile administré dans les mêmes conditions. Le nombre d'animaux survivants est évalué au jour J 30. Un composé est considéré comme étant actif lorsque le rapport T/C est supérieur ou égal à 125 %.

mélanome B 16 = assay: In vivo antitumour activity, B 16 melanoma test; design: species or system souris hybrides BDF₁; settings: B 16 melanoma; for Nombre de survivants: survivors at J 60
From the text: as §1, §2, §3, §4, §5, §6
Le produit est également considéré comme toxique lorsque la variation pondérale, exprimée en grammes et calculée par la formule : Poids moyen du lot mesuré au jour 5 -poids moyen du même lot au jour 1 est égale ou inférieure à - 4 g.
Les essais sont effectués avec des souris hybrides BDF₁ inoculées avec 0,5 ml d'un homogénat de mélanome B 16 réalisé à partir de 1 g de tumeur dans 10 ml de sérum physiologique. Le composé à tester est administré pendant 9 jours (J₁-J₉).Le contrôle positif du test est le Cis-Platine administré dans les mêmes conditions. Le nombre d'animaux survivants est évalué au jour J 60.

[3] = L 1210, CDF₁ mice, 5 mg/kg i.p. J1-J5
[4] = L 1210, CDF₁ mice, 10 mg/kg i.p. J1-J5
[5] = L 1210, CDF₁ mice, 20 mg/kg i.p. J1-J5
[6] = L 1210, CDF₁ mice, 30 mg/kg i.p. J1-J5
[7] = L 1210, CDF₁ mice, 1,25 mg/kg i.p. J1-J5
[8] = L 1210, CDF₁ mice, 2,5 mg/kg i.p. J1-J5
[9] = L 1210, CDF₁ mice, 7,5 mg/kg i.p. J1-J5
[10] = BDF₁ mice, 0,625 mg/kg i.p. J1-J9
[11] = BDF₁ mice, 1,25 mg/kg i.p. J1-J9
[12] = BDF₁ mice, 2,5 mg/kg i.p. J1-J9

CCN(CC)CCCNc1nc2ccccc2c2[nH]c3ccc(O)cc3c12 [Dérivé N°11, (diéthylamino-3 propylamino)-6 hydroxy-8 11-H indolo[3,2-c]quinoléine]
mortalité évaluée au septième jour après l'administration [1]: aucune mortalité | IC50 [2]: 130 nM | response vs control in vivo at 5 mg/kg (leucémie P 388; Mus musculus, P388, ip, P 388, CDF 1 mice, 5 mg/kg i.p. J1-J5, read-out: T/C %): 154% | response vs control in vivo at 1.25 mg/kg (leucémie P 388; Mus musculus, P388, ip, P 388, CDF 1 mice, 1,25 mg/kg i.p. J1-J5, read-out: T/C %): 142% | response vs control in vivo at 2.5 mg/kg (leucémie P 388; Mus musculus, P388, ip, P 388, CDF 1 mice, 2,5 mg/kg i.p. J1-J5, read-out: T/C %): 152% | response vs control in vivo at 15 mg/kg (leucémie P 388; Mus musculus, P388, ip, P 388, CDF 1 mice, 15,0 mg/kg i.p. J1-J5, read-out: T/C %): 146% | Variation pondérale en g (leucémie P 388; in vivo, ip, 5 mg/kg): + 0,6 g | Jour médian de survie (leucémie L 1210; [3]): 14,25 | T/C % (leucémie L 1210; [3]): 160% | Nombre de survivants (leucémie L 1210; [3]): 0 | Jour médian de survie (leucémie L 1210; [4]): 12,25 | T/C % (leucémie L 1210; [4]): 138% | Nombre de survivants (leucémie L 1210; [4]): 0 | Jour médian de survie (leucémie L 1210; [5]): 11,7 | T/C % (leucémie L 1210; [5]): 131% | Nombre de survivants (leucémie L 1210; [5]): 0 | Jour médian de survie (leucémie L 1210; [6]): 8,3 | T/C % (leucémie L 1210; [6]): 93% | Nombre de survivants (leucémie L 1210; [6]): 0 | Jour médian de survie (leucémie L 1210; [7]): 10,9 | T/C % (leucémie L 1210; [7]): 122% | Nombre de survivants (leucémie L 1210; [7]): 0 | Jour médian de survie (leucémie L 1210; [8]): 12,75 | T/C % (leucémie L 1210; [8]): 143% | Nombre de survivants (leucémie L 1210; [8]): 0 | Jour médian de survie (leucémie L 1210; [9]): 12,3 | T/C % (leucémie L 1210; [9]): 138% | Nombre de survivants (leucémie L 1210; [9]): 0 | Jour médian de survie (mélanome B 16; BDF₁ mice, 5 mg/kg i.p. J1-J9): 31 | T/C % (mélanome B 16; BDF₁ mice, 5 mg/kg i.p. J1-J9): 132% | Nombre de survivants (mélanome B 16; BDF₁ mice, 5 mg/kg i.p. J1-J9): 0 | Jour médian de survie (mélanome B 16; [10]): 29 | T/C % (mélanome B 16; [10]): 123% | Nombre de survivants (mélanome B 16; [10]): 0 | Jour médian de survie (mélanome B 16; [11]): 40 | T/C % (mélanome B 16; [11]): 170% | Nombre de survivants (mélanome B 16; [11]): 1 | Jour médian de survie (mélanome B 16; [12]): 38 | T/C % (mélanome B 16; [12]): 162% | Nombre de survivants (mélanome B 16; [12]): 2

Reference: patent EP0226508A1, “Indolo[3,2-c]quinoline derivatives, process for their preparation and their anti-tumour activity” (priority 1985, dated 1987)
